# ChEMBL document CHEMBL1201862, “PubChem BioAssay data set” (2004)
# Active and inactive are the calls of the source.
# Legend:
# [1] = molecular target: T1, Microphthalmia-associated transcription factor (Homo sapiens, UniProt O75030); test: reducers of TRPM1 reporter luminescence, concentration series – cell-based, SK-MEL-5, cherry-picked, set 3, MITF inhibitor project, dose response (AID 493073); assay type: functional;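 also: SK-MEL-5 melanoma cells with luciferase driven by the MITF target TRPM1 promoter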
# T1 sequence (O75030 whole entry): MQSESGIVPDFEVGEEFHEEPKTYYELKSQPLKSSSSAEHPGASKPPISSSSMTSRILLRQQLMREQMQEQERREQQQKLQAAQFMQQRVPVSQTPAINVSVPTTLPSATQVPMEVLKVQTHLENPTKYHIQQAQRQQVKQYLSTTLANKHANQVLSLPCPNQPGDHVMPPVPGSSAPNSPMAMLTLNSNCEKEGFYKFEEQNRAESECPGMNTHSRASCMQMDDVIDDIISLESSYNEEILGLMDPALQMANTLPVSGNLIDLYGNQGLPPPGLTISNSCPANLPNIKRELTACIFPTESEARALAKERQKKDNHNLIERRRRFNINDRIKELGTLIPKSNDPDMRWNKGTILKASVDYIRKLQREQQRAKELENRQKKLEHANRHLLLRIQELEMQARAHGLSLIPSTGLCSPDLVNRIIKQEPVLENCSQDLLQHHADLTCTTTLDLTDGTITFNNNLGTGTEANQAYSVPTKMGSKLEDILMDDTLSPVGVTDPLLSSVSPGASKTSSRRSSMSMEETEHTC
# [2] = HEK-293T cell viability reduction – luminescence, B-cell screen hits, cytotoxicity control for BCR NF-kB inhibitor project, dose response (AID 489021); assay type: functional, cell-based;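 also: HEK-293T cells carrying an NF-kB luciferase reporter; cells exposed to compound for about 14 hours before viability readout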
# [3] = molecular target: Neurotensin receptor type 1 (Homo sapiens, UniProt P30989); assay type: functional;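 also: Image-based confirmatory dose-response assay measuring agonist activity at NTR1; NTR1-expressing U2OS osteosarcoma cells imaged for beta-arrestin GFP spot formation; agonist potency where compounds increase beta-arrestin recruitment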
# Neurotensin receptor type 1, sequence (P30989 whole entry): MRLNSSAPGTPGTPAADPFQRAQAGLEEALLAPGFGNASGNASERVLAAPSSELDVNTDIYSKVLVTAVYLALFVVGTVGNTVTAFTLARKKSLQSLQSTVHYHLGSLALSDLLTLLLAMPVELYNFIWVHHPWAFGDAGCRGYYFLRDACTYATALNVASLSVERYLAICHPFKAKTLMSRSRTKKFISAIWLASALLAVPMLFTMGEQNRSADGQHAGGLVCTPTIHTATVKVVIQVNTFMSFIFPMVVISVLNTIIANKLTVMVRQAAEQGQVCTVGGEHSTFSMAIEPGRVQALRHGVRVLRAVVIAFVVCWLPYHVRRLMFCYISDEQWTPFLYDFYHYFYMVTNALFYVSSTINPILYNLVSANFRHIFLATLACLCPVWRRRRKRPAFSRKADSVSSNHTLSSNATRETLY
# [4] = viability of uninfected HEp-2 cells – cell-based, HTS, cytotoxicity control for RSV inhibitor project, dose response (AID 2410); assay type: functional; conditions: human respiratory syncytial virus
# Trypsin = Trypsin (Sus scrofa, UniProt P00761); test: trypsin protease activity blockade – biochemical, quenched peptide fluorescence, cherry-pick, selectivity assay for Rce1 protease inhibitor project, dose response (AID 488789)
# Trypsin, sequence (P00761 whole entry): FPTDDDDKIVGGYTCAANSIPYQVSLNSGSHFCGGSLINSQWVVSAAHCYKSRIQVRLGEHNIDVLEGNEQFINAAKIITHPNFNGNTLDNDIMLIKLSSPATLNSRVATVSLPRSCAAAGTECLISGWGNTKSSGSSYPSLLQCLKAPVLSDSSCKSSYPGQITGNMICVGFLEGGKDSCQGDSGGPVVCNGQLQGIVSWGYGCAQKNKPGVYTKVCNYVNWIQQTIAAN
# Cytochrome P450 1A2 = molecular target: T2, Cytochrome P450 1A2 (Homo sapiens, UniProt P05177);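 also: PubChem cytochrome P450 panel assay, CYP1A2 panel member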
# T2 sequence (P05177 whole entry): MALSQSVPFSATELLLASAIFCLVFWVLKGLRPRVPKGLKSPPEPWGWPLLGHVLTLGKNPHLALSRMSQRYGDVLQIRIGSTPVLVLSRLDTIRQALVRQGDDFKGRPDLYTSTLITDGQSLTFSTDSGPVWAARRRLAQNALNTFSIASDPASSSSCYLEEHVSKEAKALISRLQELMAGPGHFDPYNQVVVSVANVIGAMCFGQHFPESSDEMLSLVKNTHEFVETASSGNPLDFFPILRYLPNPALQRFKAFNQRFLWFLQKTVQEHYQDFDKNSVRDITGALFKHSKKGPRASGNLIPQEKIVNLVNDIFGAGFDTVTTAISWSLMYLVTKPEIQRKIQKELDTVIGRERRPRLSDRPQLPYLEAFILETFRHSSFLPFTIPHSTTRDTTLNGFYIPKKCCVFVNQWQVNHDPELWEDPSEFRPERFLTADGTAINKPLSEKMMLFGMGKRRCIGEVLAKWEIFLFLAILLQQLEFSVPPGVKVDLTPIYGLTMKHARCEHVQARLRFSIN
# CAAX prenyl protease 2 = molecular target: T3, CAAX prenyl protease 2 (Homo sapiens, UniProt Q9Y256); test: inhibition of Ras-converting CAAX protease Rce1 – biochemical, yeast membranes, quenched-peptide fluorescence, cherry-pick, dose response (AID 588849)
# T3 sequence (Q9Y256 whole entry): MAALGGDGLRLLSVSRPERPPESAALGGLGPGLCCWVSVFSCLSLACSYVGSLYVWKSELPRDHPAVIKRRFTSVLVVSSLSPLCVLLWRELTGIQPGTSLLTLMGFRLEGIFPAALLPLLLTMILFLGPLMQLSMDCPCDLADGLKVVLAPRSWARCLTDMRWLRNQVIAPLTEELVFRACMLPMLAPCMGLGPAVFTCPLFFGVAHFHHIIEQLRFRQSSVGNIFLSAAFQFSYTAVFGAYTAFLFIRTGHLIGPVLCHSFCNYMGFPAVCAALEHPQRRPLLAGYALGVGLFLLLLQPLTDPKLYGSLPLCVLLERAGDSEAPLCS
# Cytochrome P450 3A4 = Cytochrome P450 3A4 (Homo sapiens, UniProt P08684);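 also: CYP3A4 tested as one member of a cytochrome P450 panel screen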
# Cytochrome P450 3A4, sequence (P08684 whole entry): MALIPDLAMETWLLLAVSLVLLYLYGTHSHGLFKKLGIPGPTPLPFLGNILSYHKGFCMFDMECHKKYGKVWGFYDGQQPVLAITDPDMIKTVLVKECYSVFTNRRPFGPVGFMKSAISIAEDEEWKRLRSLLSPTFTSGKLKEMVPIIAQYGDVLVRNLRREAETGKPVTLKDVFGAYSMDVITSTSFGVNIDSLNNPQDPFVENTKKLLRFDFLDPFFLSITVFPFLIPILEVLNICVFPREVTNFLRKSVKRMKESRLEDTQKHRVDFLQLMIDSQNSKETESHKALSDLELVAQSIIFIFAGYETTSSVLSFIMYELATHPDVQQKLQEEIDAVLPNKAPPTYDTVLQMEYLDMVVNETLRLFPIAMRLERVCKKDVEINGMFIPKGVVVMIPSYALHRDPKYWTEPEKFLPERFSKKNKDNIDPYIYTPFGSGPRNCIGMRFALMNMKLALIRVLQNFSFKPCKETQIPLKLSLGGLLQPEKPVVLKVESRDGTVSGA
# CAAX prenyl protease 1 = molecular target: T4, CAAX prenyl protease 1 (Saccharomyces cerevisiae S288c, UniProt P47154); test: yeast CAAX protease Ste24 inhibition – biochemical, S. cerevisiae, plate reader, cherry-pick, dose response (AID 488815)
# T4 sequence (P47154 whole entry): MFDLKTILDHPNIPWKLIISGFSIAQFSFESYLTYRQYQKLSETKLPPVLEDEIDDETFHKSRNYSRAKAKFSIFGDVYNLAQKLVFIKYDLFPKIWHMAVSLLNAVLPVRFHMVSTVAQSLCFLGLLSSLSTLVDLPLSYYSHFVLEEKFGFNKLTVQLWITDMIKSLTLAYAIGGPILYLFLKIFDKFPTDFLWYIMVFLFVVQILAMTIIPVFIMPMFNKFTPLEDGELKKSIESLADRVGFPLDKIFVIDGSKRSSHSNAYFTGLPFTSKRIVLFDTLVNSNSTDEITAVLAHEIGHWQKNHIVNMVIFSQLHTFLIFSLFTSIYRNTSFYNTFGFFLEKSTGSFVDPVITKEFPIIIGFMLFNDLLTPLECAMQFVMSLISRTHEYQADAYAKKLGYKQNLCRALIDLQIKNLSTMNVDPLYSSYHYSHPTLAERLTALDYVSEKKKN
# [5] = molecular target: Eukaryotic translation initiation factor 4E (Mus musculus, UniProt P63073); test: blockers of eIF4G binding by eIF4E – biochemical, TR-FRET, dose response (AID 855); assay type: functional;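 also: potency for disrupting eIF4E binding to eIF4GI seen as loss of FRET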
# Eukaryotic translation initiation factor 4E, sequence (P63073 whole entry): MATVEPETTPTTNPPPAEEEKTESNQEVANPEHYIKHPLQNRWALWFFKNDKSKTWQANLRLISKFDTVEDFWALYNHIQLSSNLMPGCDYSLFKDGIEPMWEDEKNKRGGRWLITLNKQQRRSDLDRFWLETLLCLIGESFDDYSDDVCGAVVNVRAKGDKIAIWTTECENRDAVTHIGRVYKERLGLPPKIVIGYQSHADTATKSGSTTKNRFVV
# [6] = molecular target: T5, Replicative DNA helicase DnaB (Mycobacterium tuberculosis, UniProt P9WMR3); test: DnaB intein splicing inhibitors, dose response, biochemical, cell-free fluorescence (AID 449749); assay type: functional
# T5 sequence (P9WMR3 whole entry): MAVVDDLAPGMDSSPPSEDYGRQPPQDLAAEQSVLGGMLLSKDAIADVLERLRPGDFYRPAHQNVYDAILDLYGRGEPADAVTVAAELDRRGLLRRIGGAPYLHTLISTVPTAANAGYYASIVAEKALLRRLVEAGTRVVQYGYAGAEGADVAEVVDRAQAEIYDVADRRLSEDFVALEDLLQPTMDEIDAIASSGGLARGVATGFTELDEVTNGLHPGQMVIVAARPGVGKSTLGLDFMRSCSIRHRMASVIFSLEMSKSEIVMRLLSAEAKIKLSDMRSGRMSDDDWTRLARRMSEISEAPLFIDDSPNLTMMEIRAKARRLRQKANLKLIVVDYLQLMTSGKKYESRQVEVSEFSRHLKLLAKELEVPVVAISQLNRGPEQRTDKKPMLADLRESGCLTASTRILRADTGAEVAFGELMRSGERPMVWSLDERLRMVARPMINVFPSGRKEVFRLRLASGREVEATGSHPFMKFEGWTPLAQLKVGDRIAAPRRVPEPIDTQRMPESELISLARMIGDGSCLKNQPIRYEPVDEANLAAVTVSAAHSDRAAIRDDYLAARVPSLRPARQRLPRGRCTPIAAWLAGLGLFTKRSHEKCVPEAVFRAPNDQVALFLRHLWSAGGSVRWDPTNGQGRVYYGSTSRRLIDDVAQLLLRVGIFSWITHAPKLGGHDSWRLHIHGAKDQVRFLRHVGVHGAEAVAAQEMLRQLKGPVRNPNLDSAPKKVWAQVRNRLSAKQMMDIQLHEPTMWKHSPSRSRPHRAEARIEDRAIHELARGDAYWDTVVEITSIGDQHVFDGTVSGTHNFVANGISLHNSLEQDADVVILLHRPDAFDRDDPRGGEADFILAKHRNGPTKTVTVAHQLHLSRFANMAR
# Protein RecA = molecular target: T6, Protein RecA (Mycobacterium tuberculosis, UniProt P9WHJ3); test: Fluorescence Cell-Free Homogeneous Dose Retest to Identify Inhibitors of RecA-Intein Splicing Activity. [Related pubchem assays (depositor defined):AID2097, AID2223, AID489010, AID492950]; assay type: functional
# T6 sequence (P9WHJ3 whole entry): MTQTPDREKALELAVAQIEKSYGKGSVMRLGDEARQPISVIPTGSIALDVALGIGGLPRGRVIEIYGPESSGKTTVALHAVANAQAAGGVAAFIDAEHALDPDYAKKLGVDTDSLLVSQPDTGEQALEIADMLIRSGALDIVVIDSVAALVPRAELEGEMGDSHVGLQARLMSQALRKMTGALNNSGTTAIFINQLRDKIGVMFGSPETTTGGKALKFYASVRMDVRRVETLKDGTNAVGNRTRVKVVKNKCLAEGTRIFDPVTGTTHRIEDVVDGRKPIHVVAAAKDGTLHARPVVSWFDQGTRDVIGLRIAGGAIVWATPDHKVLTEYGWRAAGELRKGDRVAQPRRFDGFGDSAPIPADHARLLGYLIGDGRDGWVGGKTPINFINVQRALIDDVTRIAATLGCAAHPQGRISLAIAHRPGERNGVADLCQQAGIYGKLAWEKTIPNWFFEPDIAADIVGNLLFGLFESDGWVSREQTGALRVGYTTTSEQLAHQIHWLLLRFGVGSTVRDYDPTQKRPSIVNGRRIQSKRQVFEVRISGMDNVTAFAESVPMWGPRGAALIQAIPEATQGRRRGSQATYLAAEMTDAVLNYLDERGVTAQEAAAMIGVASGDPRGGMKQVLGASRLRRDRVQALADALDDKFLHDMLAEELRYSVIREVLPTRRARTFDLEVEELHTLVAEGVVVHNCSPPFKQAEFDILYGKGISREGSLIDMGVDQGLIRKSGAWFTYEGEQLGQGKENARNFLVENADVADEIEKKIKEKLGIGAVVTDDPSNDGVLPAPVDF
# [7] = molecular target: T7, Histone-lysine N-methyltransferase NSD2 (Homo sapiens, UniProt O96028); assay type: biochemical
# T7 sequence (O96028 whole entry): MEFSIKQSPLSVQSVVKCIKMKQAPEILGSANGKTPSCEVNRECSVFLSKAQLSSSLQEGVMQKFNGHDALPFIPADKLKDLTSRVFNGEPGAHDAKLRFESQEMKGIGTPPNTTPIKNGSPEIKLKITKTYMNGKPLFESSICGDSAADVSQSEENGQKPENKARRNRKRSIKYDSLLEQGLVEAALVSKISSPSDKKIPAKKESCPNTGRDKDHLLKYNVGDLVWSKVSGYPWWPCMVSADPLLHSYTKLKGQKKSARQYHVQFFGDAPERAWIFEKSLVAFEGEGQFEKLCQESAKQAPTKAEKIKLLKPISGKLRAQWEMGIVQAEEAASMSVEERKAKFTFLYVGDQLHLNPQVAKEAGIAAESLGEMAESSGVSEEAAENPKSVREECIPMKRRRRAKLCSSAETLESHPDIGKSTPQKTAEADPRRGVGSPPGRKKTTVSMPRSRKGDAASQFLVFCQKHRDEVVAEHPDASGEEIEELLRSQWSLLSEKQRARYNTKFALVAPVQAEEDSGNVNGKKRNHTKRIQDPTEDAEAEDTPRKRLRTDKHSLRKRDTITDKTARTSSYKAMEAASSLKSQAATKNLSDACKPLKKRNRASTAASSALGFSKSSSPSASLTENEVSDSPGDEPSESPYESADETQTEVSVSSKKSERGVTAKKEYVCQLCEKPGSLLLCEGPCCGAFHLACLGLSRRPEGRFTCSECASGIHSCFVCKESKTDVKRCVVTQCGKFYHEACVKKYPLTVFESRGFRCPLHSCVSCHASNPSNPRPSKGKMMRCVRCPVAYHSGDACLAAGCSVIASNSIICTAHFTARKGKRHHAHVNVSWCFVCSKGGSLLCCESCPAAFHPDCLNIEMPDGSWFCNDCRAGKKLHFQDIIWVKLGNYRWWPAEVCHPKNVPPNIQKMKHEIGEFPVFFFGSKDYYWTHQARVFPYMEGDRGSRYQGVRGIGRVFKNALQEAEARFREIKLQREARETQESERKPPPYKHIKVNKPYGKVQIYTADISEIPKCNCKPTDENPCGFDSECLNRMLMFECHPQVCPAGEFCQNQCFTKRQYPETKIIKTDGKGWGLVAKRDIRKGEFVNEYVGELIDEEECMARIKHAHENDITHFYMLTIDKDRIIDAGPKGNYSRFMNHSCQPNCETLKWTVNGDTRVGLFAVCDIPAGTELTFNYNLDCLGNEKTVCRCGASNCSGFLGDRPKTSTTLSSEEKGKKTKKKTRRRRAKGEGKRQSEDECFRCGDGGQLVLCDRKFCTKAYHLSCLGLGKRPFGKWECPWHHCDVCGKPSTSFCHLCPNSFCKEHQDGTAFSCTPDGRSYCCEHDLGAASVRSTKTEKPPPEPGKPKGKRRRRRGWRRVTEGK
structure (smiles),measurement,setting,value
Cc1cc(C)cc(N2C(=O)NC(=O)/C(=C\c3cccn3-c3ccccc3)C2=O)c1,AC50,[1],13.8 µM (active)
same,IC50,[2],> 80 µM (inactive)
same,EC50,[3],10.3 µM (active)
same,CC50,[4],19.9 µM (active)
CCOc1c2ccc(C(=O)NCc3ccco3)cc2nn1CCOC,AC50,Trypsin,16.5 µM (active)
same,AC50,Cytochrome P450 1A2,15.8 µM (inconclusive)
same,AC50,CAAX prenyl protease 2,12.3 µM (active)
same,AC50,Cytochrome P450 3A4,22.4 µM (inconclusive)
same,AC50,CAAX prenyl protease 1,11.5 µM (active)
CC(C)(O)/C=C/C(=O)[C@](C)(O)C1[C@H](O)C[C@@]2(C)C3CC=C4C(C[C@H](O)[C@@H](O)C4(C)C)[C@]3(C)C(=O)C[C@]12C (stereo not given in full),IC50,[2],> 80 µM (inactive)
CCN(CC)c1ccc(NC(=O)CCCOc2cccc(C)c2)cc1,IC50,[5],50 µM (inactive)
COc1ccc(CNC(=O)c2ccccc2NS(C)(=O)=O)cc1,AC50,Trypsin,12.4 µM (active)
same,AC50,CAAX prenyl protease 2,11.7 µM (active)
same,AC50,CAAX prenyl protease 1,5.47 µM (active)
CC(=O)c1c(C)nc(-c2ccc(Cl)cc2)nc1/N=C/N(C)C,AC50,[6],> 380 µM (inactive)
same,EC50,Protein RecA,> 380 µM (inactive)
same,IC50,[5],40 µM (inactive)
same,AC50,[7],> 20 µM (inactive)
CN(C)/C=N/c1c(C#N)cnn1-c1ncnc2sc(-c3ccccc3)cc12,AC50,Trypsin,8.06 µM (active)
same,AC50,CAAX prenyl protease 2,19.1 µM (active)
